Several values for one entry are separate records, joined by “and”; a condition that tells them apart may be missing. Equal entries are not always repeated. Structures can show the parent of a compound that is named as a salt. Some results are limits rather than exact numbers.

c-fms, sequence (P07333 20-972): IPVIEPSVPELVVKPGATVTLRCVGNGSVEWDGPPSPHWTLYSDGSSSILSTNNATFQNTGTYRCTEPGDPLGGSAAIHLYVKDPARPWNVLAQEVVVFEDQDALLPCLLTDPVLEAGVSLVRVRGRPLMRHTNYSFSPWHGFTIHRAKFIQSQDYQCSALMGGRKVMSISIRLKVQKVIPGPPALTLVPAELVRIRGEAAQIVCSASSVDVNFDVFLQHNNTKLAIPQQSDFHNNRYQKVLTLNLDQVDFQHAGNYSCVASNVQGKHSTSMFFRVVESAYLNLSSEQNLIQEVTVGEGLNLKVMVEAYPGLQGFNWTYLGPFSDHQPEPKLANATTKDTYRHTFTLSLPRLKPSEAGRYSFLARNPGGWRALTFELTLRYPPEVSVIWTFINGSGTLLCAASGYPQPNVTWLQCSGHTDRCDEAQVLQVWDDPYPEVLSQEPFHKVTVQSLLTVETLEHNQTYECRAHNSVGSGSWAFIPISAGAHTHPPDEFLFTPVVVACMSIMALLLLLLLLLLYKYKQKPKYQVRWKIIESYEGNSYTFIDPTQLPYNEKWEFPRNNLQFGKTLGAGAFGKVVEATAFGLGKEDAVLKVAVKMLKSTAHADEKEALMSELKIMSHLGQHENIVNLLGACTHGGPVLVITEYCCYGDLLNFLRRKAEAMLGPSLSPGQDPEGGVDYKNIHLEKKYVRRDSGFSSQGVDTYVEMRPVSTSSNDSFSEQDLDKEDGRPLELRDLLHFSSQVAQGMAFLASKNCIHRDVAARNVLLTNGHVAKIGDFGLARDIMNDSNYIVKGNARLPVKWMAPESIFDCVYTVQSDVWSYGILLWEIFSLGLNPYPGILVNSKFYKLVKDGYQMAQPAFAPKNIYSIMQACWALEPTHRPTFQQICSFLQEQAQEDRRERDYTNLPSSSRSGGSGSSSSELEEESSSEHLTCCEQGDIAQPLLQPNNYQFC

The target in one experiment is CSF-1R (c-fms) (Homo sapiens (Human), UniProt P07333). The experiment can be described thus: Fluorescence polarization competition immunoassay (1 nM c-fms; peptide Pi assay). Type of experiment: biochemical. As to conditions: read-out: 1 nM c-fms; peptide Pi assay - IC-50. On the technique in general: In fluorescence polarisation assays a small probe gives low polarisation when free and higher when bound to something large.
CSF-1R (c-fms), sequence (P07333 20-972): as above
Experimental: Fluorescence Polarization Competition Immunoassay
The kinase reaction was initiated by adding 1 μL of 10 mM ATP in assay buffer. […] Positive and negative control wells were included on each plate, where 4% DMSO in assay buffer was substituted for the compound; in addition, positive control wells received 1.2 μL of 50 mM EDTA (ethylenediaminetetraacetic acid) before the start of the reaction.
The plates were covered, incubated for 30 min at room temperature, and the fluorescence polarization was read on an Analyst plate reader (Molecular Devices). […] Reported IC50 values are the mean of three of at least three determinations.
For the compound `Cc1nc(C(=O)Nc2ccc(CCN3CCOCC3)cc2C2=CCCCC2)[nH]c1C#N` [Example 33, 5-Cyano-4-methyl-1H-imidazole-2-carboxylic acid [2-cyclohex-1-enyl-4-(2-morpholin-4-yl-ethyl)-phenyl]-amide hydrochloride], the IC50 was greater than 60 nM.
On to `C[S+]([O-])c1ncc(C(=O)Nc2ccc(CCN3CCOCC3)cc2C2=CCCCC2)[nH]1` (centres unmarked) [Example 35, 2-Methanesulfinyl-3H-imidazole-4-carboxylic acid [2-cyclohex-1-enyl-4-(2-morpholin-4-yl-ethyl)-phenyl]-amide trifluoroacetic acid salt], for which the IC50 was greater than 500 nM.
On the same count and under the same terms, under `CS(=O)(=O)c1ncc(C(=O)Nc2ccc(CCN3CCOCC3)cc2C2=CCCCC2)[nH]1` [Example 36, 2-Methanesulfonyl-3H-imidazole-4-carboxylic acid [2-cyclohex-1-enyl-4-(2-morpholin-4-yl-ethyl)-phenyl]-amide hydrochloride] stands greater than 500 nM.
Same read-out and setting: under `O=C(Nc1ccc(CCN2CCOCC2)cc1C1=CCCCC1)c1nc(Cl)c(Cl)[nH]1` [Example 38, 4,5-Dichloro-1H-imidazole-2-carboxylic acid [2-cyclohex-1-enyl-4-(2-morpholin-4-yl-ethyl)-phenyl]-amide trifluoroacetic acid salt] stands greater than 60 nM; under `O=C(Nc1ccc(CCN2CCOCC2)cc1C1=CCCCC1)c1nc2ccccc2[nH]1` [Example 39, 1H-Benzoimidazole-2-carboxylic acid [2-cyclohex-1-enyl-4-(2-morpholin-4-yl-ethyl)-phenyl]-amide trifluoroacetic acid salt], greater than 60 nM.
As for `CC1(C)CC=C(c2cc(C(C)(C)CN3C[C@@H]4OC(C)(C)O[C@@H]4C3)ccc2NC(=O)c2nc(C#N)c[nH]2)CC1` [Example 140, 4-Cyano-1H-imidazole-2-carboxylic acid {2-(4,4-dimethyl-cyclohex-1-enyl)-4-[2-(2,2-dimethyl-tetrahydro-[1,3]dioxolo[4,5-c]pyrrol-5-yl)-1,1-dimethyl-ethyl]-phenyl}-amide], the IC50 is greater than 100 nM.

The next experiment has as its target c-fms (Homo sapiens (Human), UniProt P07333). The experiment can be described thus: 10 nM c-fms auto-Pi assay. The settings on record: cell printed as 0.05@0.002–2; read-out: 10 nM c-fms auto-Pi assay - IC-50. In kind it is biochemical.
As to `CCN(C)CCCc1ccc(NC(=O)c2ccc(C#N)o2)c(N2CCC(C)CC2)c1` [Example 55, 5-Cyano-furan-2-carboxylic acid [4-[3-(ethyl-methyl-amino)-propyl]-2-(4-methyl-piperidin-1-yl)-phenyl]-amide], the IC50 stood at 50 nM.

A further experiment relates to mouse bone-marrow derived macrophages.
Assay: not given
The settings on record: Mus musculus, BMDM, 30 h, read-out: mCSF driven proliferation BMDM (Mouse) - IC-50 (μM), BrDU incorporation, CSF-1 stimulated, 30 hrs culture.
As to `O=C(Nc1ccc(CCN2CCOCC2)cc1C1=CCCCC1)c1ncc(Cl)[nH]1` [Example 41, 5-Chloro-1H-imidazole-2-carboxylic acid [2-cyclohex-1-enyl-4-(2-morpholin-4-yl-ethyl)-phenyl]-amide hydrochloride], the IC50 came out at 0.321 µM.
As to `N#Cc1cnc(C(=O)Nc2ccc(CN3CCOCC3)cc2C2=CCCCC2)[nH]1` [Example 44, 5-Cyano-1H-imidazole-2-carboxylic acid (2-cyclohex-1-enyl-4-morpholin-4-ylmethyl-phenyl)-amide hydrochloride], the IC50 was 0.0164 µM.
Regarding `CC1(C)CC=C(c2cc(CC(=O)NCCCO)ccc2NC(=O)c2ncc(C#N)[nH]2)CC1` [Example 54, 5-Cyano-1H-imidazole-2-carboxylic acid {2-(4,4-dimethyl-cyclohex-1-enyl)-4-[(3-hydroxy-propylcarbamoyl)-methyl]-phenyl}-amide], the IC50 was greater than 0.1 µM.
Turning to `CC1(C)CC=C(c2cc(C(C)(C)N3CCN(CC(=O)O)CC3)ccc2NC(=O)c2nc(C#N)c[nH]2)CC1` [Example 64, (4-{1-[4-[(4-Cyano-1H-imidazole-2-carbonyl)-amino]-3-(4,4-dimethyl-cyclohex-1-enyl)-phenyl]-1-methyl-ethyl}-piperazin-1-yl)-acetic acid, sodium salt], the IC50 was found to be 0.2 µM.
For the compound `CC1(C)CC=C(c2cc(C(C)(C)NCCO)ccc2NC(=O)c2nc(C#N)c[nH]2)CC1` [Example 65, 4-Cyano-1H-imidazole-2-carboxylic acid {2-(4,4-dimethyl-cyclohex-1-enyl)-4-[1-(2-hydroxy-ethylamino)-1-methyl-ethyl]-phenyl}-amide hydrochloride], the IC50 worked out at 0.0081 µM.
For the compound `CC1(C)CC=C(c2cc(C(C)(C)CN3C[C@@H]4OC(C)(C)O[C@@H]4C3)ccc2NC(=O)c2nc(C#N)c[nH]2)CC1` [Example 140, 4-Cyano-1H-imidazole-2-carboxylic acid {2-(4,4-dimethyl-cyclohex-1-enyl)-4-[2-(2,2-dimethyl-tetrahydro-[1,3]dioxolo[4,5-c]pyrrol-5-yl)-1,1-dimethyl-ethyl]-phenyl}-amide], the IC50 was found to be 0.031 µM.

The experiment is the same for the next values; noted with them: read-out: mCSF driven proliferation BMDM (Mouse) - IC-50; BrDU incorporation, CSF-1 stimulated, 30 hrs culture.
For the compound `COCCNC(C)(C)c1ccc(NC(=O)c2nc(C#N)c[nH]2)c(C2=CCC(C)(C)CC2)c1` [Example 20, 4-Cyano-1H-imidazole-2-carboxy-lic acid{2-(4,4-di-methyl-cyclo-hex-1-enyl)-4-[1-(2-meth-oxy-ethyl-amino)-1-methyl-ethyl]-phenyl}-amide], the IC50 is 0.0047 µM and 0.0048 µM.
Same read-out and setting: as for `CN1CCN(C(C)(C)c2ccc(NC(=O)c3nc(C#N)c[nH]3)c(C3=CCC(C)(C)CC3)c2)CC1` [Example 23, 4-Cyano-1H-imidazole-2-carboxy-lic acid{2-(4,4-di-methyl-cyclohex-1-enyl)-4-[1-meth-yl-1-(4-methyl-piperazin-1-yl)-ethyl]-phe-nyl}-amide], the figure is 0.0033 µM; as for `N#Cc1c[nH]c(C(=O)Nc2ccc(CCS(=O)(=O)N3CCOCC3)cc2C2=CCCCC2)n1` [Example 26, 4-Cyano-1H-imidazole-2-carboxylic acid {2-cyclohex-1-enyl-4-[2-(morpholine-4-sulfonyl)-ethyl]-phenyl}-amide], 0.0059 µM.

Still in this experiment, the particulars now being: read-out: mCSF driven proliferation BMDM (Mouse) - IC-50; BrDU incorporation, CSF-1 stimulated, 30 hrs culture; hydrochloride.
Take `N#Cc1cnc(C(=O)Nc2ccc(CN3CCOCC3)cc2C2=CCCCC2)[nH]1` [Example 44, 5-Cyano-1H-imidazole-2-carboxylic acid (2-cyclohex-1-enyl-4-morpholin-4-ylmethyl-phenyl)-amide hydrochloride]: the IC50 was determined as 0.0146 µM.

The record behind these values is patent publication US8674100B2, “Inhibitors of C-FMS kinase” (Janssen Pharmaceutica, N.V., priority 2006, dated 2014).
